Test results reported in US10881108B2, “Method of protecting field corn from damage by a plant pathogen” (SUMITOMO CHEMICAL COMPANY, LIMITED, priority 2019, dated 2021).

Assays:
Type in all cases: in vivo
[1] = test system: Cercospora zeae-maydis; test: Foliar spray on potted corn, then grey leaf spot inoculation; fresh weight of aerial part; conditions: foliar spray 500 g per hectare, 14 days from inoculation
Procedure: Field corn is sown to a pot filled with a soil. It is incubated for 7 days in a greenhouse. Mefentrifluconazole spray liquid (prepared by diluting an aqueous suspension concentrate of mefentrifluconazole with water) is uniformly sprayed onto the foliage of field corn at the amount of 200 L per hectare so that the application rate of mefentrifluconazole may be 500 g per hectare. On the next day of the spraying, a pathogen of grey leaf spot (Cercospora zeae-maydis) is inoculated to the foliage of field corn. The field corn is incubated in a greenhouse for 14 days from the inoculation, and then fresh weight of the aerial part of the field corn is measured. It is confirmed that the fresh weight is equivalent to that of the control where field corn is not treated with mefentrifluconazole and the pathogen is not inoculated (no-treatment-no-inoculation control) and is bigger than that of the control where field corn is not treated with mefentrifluconazole and the pathogen is inoculated (no-treatment-inoculation control). The same procedure of the example 1 is repeated except for replacing field corn with popcorn, sweet corn, or waxy corn. It is confirmed that the fresh weight of popcorn, sweet corn, or waxy corn is smaller than that of the corresponding no-treatment-no-inoculation control and is equivalent to that of the corresponding no-treatment-inoculation control.

[2] = test system: Cercospora zeae-maydis; test: Seed coating, then grey leaf spot inoculation; fresh weight of aerial part; conditions: seed coating 0.2 mg per seed, 20 g per hectare, 14 days from inoculation
Procedure: Seeds of field corn are coated with a mefentrifluconazole aqueous suspension concentrate so that the amount of mefentrifluconazole to be applied to each seed may be 0.2 mg. Then, the field corn seeds are sown to a pot filled with a soil at a sowing rate of 100,000 seeds per hectare. That is, the application rate of mefentrifluconazole is 20 g per hectare. Then, the field corn is incubated in a greenhouse for 10 days, followed by inoculating a pathogen of grey leaf spot (Cercospora zeae-maydis) to the foliage of field corn. The field corn is incubated in a greenhouse for 14 days from the inoculation, and then the fresh weight of the aerial part of the field corn is measured. It is confirmed that the fresh weight is equivalent to that of the control where field corn is not treated with mefentrifluconazole and the pathogen is not inoculated (no-treatment-no-inoculation control) and is bigger than that of the control where field corn is not treated with mefentrifluconazole and the pathogen is inoculated (no-treatment-inoculation control). The same procedure of the example 2 is repeated except for replacing field corn with popcorn, sweet corn, or waxy corn. It is confirmed that the fresh weight of popcorn, sweet corn, or waxy corn is smaller than that of the corresponding no-treatment-no-inoculation control and is equivalent to that of the corresponding no-treatment-inoculation control.

[3] = test system: Cercospora zeae-maydis; test: Dripping onto primary leaf, then grey leaf spot inoculation; fresh weight of aerial part; conditions: dripped onto primary leaf 0.2 mg per plant, 200 g per hectare, 14 days from inoculation
Procedure: Field corn is sown to a pot filled with a soil at a sowing rate of 1,000,000 seeds per hectare. The field corn is incubated for 10 days in a greenhouse, and then mefentrifluconazole dilution liquid (prepared by diluting an aqueous suspension concentrate of mefentrifluconazole with water) is dripped onto the primary leaf of field corn so that the amount of mefentrifluconazole to be applied to each plant may be 0.2 mg. That is, the application rate of mefentrifluconazole is 200 g per hectare. On the next day of the application, a pathogen of grey leaf spot (Cercospora zeae-maydis) is inoculated to the foliage of field corn. The field corn is incubated in a greenhouse for 14 days from the inoculation, and then fresh weight of the aerial part of the field corn is measured. It is confirmed that the fresh weight is equivalent to that of the control where field corn is not treated with mefentrifluconazole and the pathogen is not inoculated (no-treatment-no-inoculation control) and is bigger than that of the control where field corn is not treated with mefentrifluconazole and the pathogen is inoculated (no-treatment-inoculation control). The same procedure of the example 3 is repeated except for replacing field corn with popcorn, sweet corn, or waxy corn. It is confirmed that the fresh weight of popcorn, sweet corn, or waxy corn is smaller than that of the corresponding no-treatment-no-inoculation control and is equivalent to that of the corresponding no-treatment-inoculation control.

[4] = test system: Cercospora zeae-maydis; test: Seed dipping, then grey leaf spot inoculation; plant length of aerial part; conditions: seed dipping 0.2 mg per seed, 200 g per hectare; for Plant length in treatment plot (A) / Treatment/control ratio (100 × A/B): 7 days from inoculation
Procedure: Seeds of three varieties of field corn were separately dipped in a mefentrifluconazole dilution liquid (prepared by diluting an aqueous suspension concentrate of mefentrifluconazole with water) so that the amount of mefentrifluconazole to be applied to each seed might be 0.2 mg. Then, the field corn seeds were sown to a pot filled with a soil at a sowing rate of 1,000,000 seeds per hectare. That is, the application rate of mefentrifluconazole was 200 g per hectare. Each field corn was incubated in a greenhouse for 12 days from the sowing, and then a pathogen of grey leaf spot (Cercospora zeae-maydis) was inoculated to the foliage of each field corn. Each field corn was incubated in a greenhouse for 7 days from the inoculation, and then plant length of the aerial part of each field corn was measured. The plant length is referred to as ‘the plant length in treatment plot’. As a control experiment, the same procedure was repeated except that dipping treatment with mefentrifluconazole dilution liquid and the inoculation of the pathogen were not conducted. The plant length obtained in the control experiment is referred to as ‘the plant length in control plot’. The same procedure of the example 4 was repeated except for replacing three varieties of field corn with a variety of popcorn, and two varieties of waxy corn.

[5] = test system: Cercospora zeae-maydis; test: Dripping onto first leaf, then grey leaf spot inoculation; plant length of aerial part; conditions: 100 g per hectare; for Plant length in treatment plot (A) / Treatment/control ratio (100 × A/B): dripped onto first leaf 0.1 mg per plant, 7 days from inoculation; for protection from the damage by the pathogen: dripped onto first leaf
Procedure: Four varieties of field corn were sown to a pot filled with a soil at a sowing rate of 1,000,000 seeds per hectare. Then each field corn was incubated for 7 days in a greenhouse. A mefentrifluconazole dilution liquid (prepared by diluting an aqueous suspension concentrate of mefentrifluconazole with water) is dripped onto the first leaf of field corn plants so that the amount of mefentrifluconazole to be applied to each plant might be 0.1 mg. That is, the application rate of mefentrifluconazole was 100 g per hectare. Five days after the application, a pathogen of grey leaf spot (Cercospora zeae-maydis) was inoculated to the foliage of each field corn. Each field corn was incubated in a greenhouse for 7 days from the inoculation, and then plant length of the aerial part of each field corn was measured. The plant length is referred to as ‘the plant length in treatment plot’. As a control experiment, the same procedure was repeated except that dripping treatment with mefentrifluconazole dilution liquid and the inoculation of the pathogen were not conducted. The plant length obtained in the control experiment is referred to as ‘the plant length in control plot’. The same procedure of the example 5 was repeated except for replacing four varieties of field corn with two varieties of popcorn, a variety of sweet corn, and two varieties of waxy corn.

[6] = popcorn, sweet corn, or waxy corn

## CC(O)(Cn1cncn1)c1ccc(Oc2ccc(Cl)cc2)cc1C(F)(F)F (stereo not drawn) [mefentrifluconazole]
[1]; field corn
  fresh weight of the aerial part compared with no-treatment-inoculation control: bigger
  fresh weight of the aerial part compared with no-treatment-no-inoculation control: equivalent
[1]; [6]
  fresh weight compared with no-treatment-inoculation control: equivalent
  fresh weight compared with no-treatment-no-inoculation control: smaller
[2]; field corn
  fresh weight of the aerial part compared with no-treatment-inoculation control: bigger
  fresh weight of the aerial part compared with no-treatment-no-inoculation control: equivalent
[2]; [6]
  fresh weight compared with no-treatment-inoculation control: equivalent
  fresh weight compared with no-treatment-no-inoculation control: smaller
[3]; field corn
  fresh weight of the aerial part compared with no-treatment-inoculation control: bigger
  fresh weight of the aerial part compared with no-treatment-no-inoculation control: equivalent
[3]; [6]
  fresh weight compared with no-treatment-inoculation control: equivalent
  fresh weight compared with no-treatment-no-inoculation control: smaller
[4]; Field corn/DKC5632
  Plant length in treatment plot (A): 58 cm
  Treatment/control ratio (100 × A/B): 95
[4]; Field corn/Koshu
  Plant length in treatment plot (A): 63 cm
  Treatment/control ratio (100 × A/B): 105
[4]; Field corn/MAS40F
  Plant length in treatment plot (A): 61 cm
  Treatment/control ratio (100 × A/B): 97
[4]; Popcorn/Yuki-pop
  Plant length in treatment plot (A): 45 cm
  Treatment/control ratio (100 × A/B): 80
[4]; Waxy corn/Ki-mochi
  Plant length in treatment plot (A): 30 cm
  Treatment/control ratio (100 × A/B): 70
[4]; Waxy corn/Shiro-mochi
  Plant length in treatment plot (A): 51 cm
  Treatment/control ratio (100 × A/B): 86
[4]; Tables 1 and 2
  protection of field corns compared with popcorn or waxy corns: protected much more effectively
[5]; Field corn/DKC5632
  Plant length in treatment plot (A): 63 cm
  Treatment/control ratio (100 × A/B): 103
[5]; Field corn/Koshu
  Plant length in treatment plot (A): 65 cm
  Treatment/control ratio (100 × A/B): 108
[5]; Field corn/MAS40F
  Plant length in treatment plot (A): 64 cm
  Treatment/control ratio (100 × A/B): 102
[5]; Field corn/Pioneer 2088
  Plant length in treatment plot (A): 62 cm
  Treatment/control ratio (100 × A/B): 103
[5]; Popcorn/Maru-pop
  Plant length in treatment plot (A): 45 cm
  Treatment/control ratio (100 × A/B): 80
[5]; Popcorn/Yuki-pop
  Plant length in treatment plot (A): 53 cm
  Treatment/control ratio (100 × A/B): 84
[5]; Sweet corn/Rancher 82
  Plant length in treatment plot (A): 31 cm
  Treatment/control ratio (100 × A/B): 91
[5]; Waxy corn/Ki-mochi
  Plant length in treatment plot (A): 29 cm
  Treatment/control ratio (100 × A/B): 67
[5]; Waxy corn/Shiro-mochi
  Plant length in treatment plot (A): 43 cm
  Treatment/control ratio (100 × A/B): 73
[5]; each field corn (four varieties), Table 3
  protection from the damage by the pathogen: successfully protected
[5]; popcorns, sweet corn and waxy corns, Table 4
  protection from the damage by the pathogen: not successfully protected
